# The source made the active and inactive calls. No cut-off for these calls is given here.
# What was measured:
# [1] = Cytotoxicity against human HOP62 cells assessed as cell growth at 10^-5 M after 48 hrs by sulforhodamine B assay; type: functional; details: HOP-62, 48 h, read-out: Activity
# [2] = Cytotoxicity against human COLO205 cells assessed as cell growth at 10^-5 M after 48 hrs by sulforhodamine B assay; type: functional; details: COLO 205, 48 h, read-out: Activity
# [3] = test system: U-251; experiment: Cytotoxicity against human U251 cells assessed as cell growth at 10^-5 M after 48 hrs by sulforhodamine B assay; type: functional; details: U-251, 48 h, read-out: Activity
# [4] = test system: SK-MEL-5; experiment: cells; details: Homo sapiens, SK-MEL-5, 48 h; for CC50: read-out: LC50
# [5] = cells; details: Homo sapiens, RPMI-8226, 48 h; for CC50: read-out: LC50
# [6] = cells; details: Homo sapiens, HOP-92, 48 h; for CC50: read-out: LC50
# [7] = cells; details: Homo sapiens, SF-268, 48 h; for CC50: read-out: LC50
# [8] = cells; details: Homo sapiens, SNB-75, 48 h; for CC50: read-out: LC50
# [9] = Cytotoxicity against human BT549 cells after 48 hrs by sulforhodamine B assay; type: functional; details: BT-549, 48 h
# [10] = test system: SK-MEL-2; experiment: Cytotoxicity against human SK-MEL-2 cells after 48 hrs by sulforhodamine B assay; type: functional; details: SK-MEL-2, 48 h
# [11] = biological target: Dihydrofolate reductase (Homo sapiens) (UniProt P00374)
# [12] = biological target: Dihydrofolate reductase (Homo sapiens) (UniProt P00374); details: 20 to 30 uM
SMILES,GI50 [4] [µM],TGI [4] [µM],CC50 [4] [µM],GI50 [5] [µM],TGI [5] [µM],CC50 [5] [µM],GI50 [6] [µM],TGI [6] [µM],CC50 [6] [µM],GI50 [7] [µM],TGI [7] [µM],CC50 [7] [µM],GI50 [8] [µM],TGI [8] [µM],CC50 [8] [µM],further results
COc1cc(/C=C2\C(=O)Nc3ccccc32)cc(OC)c1O,2.9,10.7,33.1,5.5,27.5,> 100,4.2,48.9,> 100,4.3,28.8,> 100,11.7,8.5,> 100,growth at 10 µM [1]: 64.3%; growth at 10 µM [2]: 112%; growth at 10 µM [3]: 47%
O=C1Nc2ccccc2/C1=C/c1cn(CC(O)Cn2cc(/C=C3\C(=O)Nc4ccccc43)c3ccccc32)c2ccccc12 (stereo not given),1.9,3.8,7.3,2.1,5.4,> 100,1.8,4.1,9.5,1.7,3.9,8.7,1.3,2.9,6.4,GI50 [9]: 1.7 µM; TGI [9]: 3.6 µM; GI50 [10]: 1.7 µM; TGI [10]: 3.4 µM; CC50 ([10]; read-out: LC50 (the source's name)): 6.9 µM; Ka [11]: 1.38 ×10⁵ /M; inhibition [12]: Active

# From ChEMBL document CHEMBL3785084, “Rational modification of the lead molecule: Enhancement in the anticancer and dihydrofolate reductase inhibitory activity” (Bioorg Med Chem Lett, 2016)
